Legend:
estrogen receptor (ER) = estrogen receptor (ER) (Homo sapiens (Human), UniProt P03372); experiment: Inhibition of the binding of estrogen (E) to estrogen receptor (ER), MCF-7/ERE-luciferase reporter cells; format: cell-based; details: MCF-7/ERE-luciferase cells, 0.1 nM estradiol, 24 hours; read-out: IC50 value of inhibition effect on the binding of E to ER
Protocol: The inhibition effect of the compounds on the binding of E to ER in vitro was tested by the following method.
The object of this experiment was to determine the inhibition effect of the compounds on the binding of E to ER, and the in vitro activity of the compounds was evaluated according to the IC50 value.
MCF-7/ERE-luciferase cells were inoculated into the MEM medium (hyclone, SH30024.01B) containing 10% charcoal stripped FBS (Moregate, FBSF), 1% sodium pyruvate (Sigma, Cat. No. S8636), 1% nonessential amino acids (Sigma, Cat. No. M7145) and 500 μg/ml G418 in a 96-well plate with a density of 30,000 cells/well, and the cells were incubated under the conditions of 37° C. and 5% CO2. […] After incubation for 24 hours, the medium was removed, then 0.1 nM estradiol (Sigma, Cat. No. E2758) and 10 μl of the drug diluted with the medium were added to each well, and the control group was added with DMSO. The plate was gently shaken and incubated in a incubator at 37° C., 5% CO2. After 24 hours, the cell culture medium was discarded.
The inhibition effect of the compounds of the present invention on the binding of E to ER was tested by the experiment described above.

MCF7 cells = experiment: Inhibition of the proliferation of MCF7 cells (Cell Titer-Glo); format: cell-based; details: Homo sapiens, MCF-7 cells, 72 hours, read-out: IC50 value of inhibition effect on the proliferation of MCF7 cells
Protocol: The object of this experiment was to determine the inhibition effect of the compounds on the proliferation activity of MCF7 cells, and the in vitro activity of the compounds was evaluated according to the IC50 value.
After incubation for 24 hours, the medium was removed, then 90 μl of the medium containing 2% FBS and 10 μl of the drug were added to each well, 10 μl of DMSO were added to the control group, and the blank group contained only 100 μl medium containing 2% FBS. The plate was gently shaken and incubated in a incubator at 37° C., 5% CO2. After 72 hours, 50 μl of mixed Cell Titer-Glo (Promega, Cat. No. G7571) were added to each well. The plate was shaken until the ingredients were well mixed, and placed at room temperature for 10 minutes, then the chemiluminescence signal value was determined.
The values of the chemiluminescence signals vs the logarithmic concentrations of the compounds were plotted using Graghpad Prism to obtain IC50 values.

Sequence of estrogen receptor (ER) (P03372 whole entry): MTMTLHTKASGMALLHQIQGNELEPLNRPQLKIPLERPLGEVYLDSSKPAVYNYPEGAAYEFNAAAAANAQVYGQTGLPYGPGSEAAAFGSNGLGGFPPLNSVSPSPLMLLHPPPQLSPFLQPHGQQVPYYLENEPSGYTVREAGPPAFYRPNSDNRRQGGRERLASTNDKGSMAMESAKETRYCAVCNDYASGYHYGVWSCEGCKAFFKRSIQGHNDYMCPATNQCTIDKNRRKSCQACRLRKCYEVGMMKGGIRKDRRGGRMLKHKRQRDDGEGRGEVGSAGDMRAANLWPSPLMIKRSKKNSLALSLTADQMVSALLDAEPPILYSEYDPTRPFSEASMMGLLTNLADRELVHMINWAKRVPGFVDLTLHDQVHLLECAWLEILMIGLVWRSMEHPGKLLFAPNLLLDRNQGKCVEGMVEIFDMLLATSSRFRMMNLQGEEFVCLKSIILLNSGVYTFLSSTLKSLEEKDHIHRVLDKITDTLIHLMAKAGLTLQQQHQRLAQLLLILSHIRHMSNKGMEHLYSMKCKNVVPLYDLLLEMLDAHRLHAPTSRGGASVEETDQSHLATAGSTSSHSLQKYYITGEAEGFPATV

Row | Compound | IC50 (estrogen receptor (ER)) [nM] | IC50 (MCF7 cells) [nM]
1 | CC1Cc2cc(NC(=O)OC(C)(C)C)ccc2C(c2c(F)cc(/C=C/C(=O)O)cc2F)N1CC(C)(C)F [Example 31, (E)-3-(4-((1S,3R/1R,3S)-6-((tert-butoxycarbonyl)amino)-2-(2-fluoro-2-methylpropyl)-3-methyl-1,2,3,4-tetrahydroisoquinolin-1-yl)-3,5-difluorophenyl)acrylic acid] | 84.1 | 
2 | CC1Cc2cc(OCC#N)ccc2C(c2c(F)cc(/C=C/C(=O)O)cc2F)N1CC(C)(C)F [Example 33, (E)-3-(4-((1S,3R/1R,3S)-6-(cyanomethoxy)-2-(2-fluoro-2-methylpropyl)-3-methyl-1,2,3,4-tetrahydroisoquinolin-1-yl)-3,5-difluorophenyl)acrylic acid] | 37.7 | 7.78
3 | CC1Cc2cc(C3CC3)ccc2C(c2c(F)cc(/C=C/C(=O)O)cc2F)N1CC(C)(C)F [Example 34, (E)-3-(4-((1S,3R/1R,3S)-6-cyclopropyl-2-(2-fluoro-2-methylpropyl)-3-methyl-1,2,3,4-tetrahydroisoquinolin-1-yl)-3,5-difluorophenyl)acrylic acid] | 18.4 | 
4 | CC1Cc2cc(OC3CCOCC3)ccc2C(c2c(F)cc(/C=C/C(=O)O)cc2F)N1CC(C)(C)F [Example 36, (E)-3-(3,5-difluoro-4-((1S,3R/1R,3S)-2-(2-fluoro-2-methylpropyl)-3-methyl-6-((tetrahydro-2H-pyran-4-yl)oxy)-1,2,3,4-tetrahydroisoquinolin-1-yl)phenyl)acrylic acid] | 24.9 | 
5 | CC1Cc2cc(O[C@H]3CCOC3)ccc2C(c2c(F)cc(/C=C/C(=O)O)cc2F)N1CC(C)(C)F (stereo partly drawn) [Example 37, (E)-3-(3,5-difluoro-4-((1S,3R/1R,3S)-2-(2-fluoro-2-methylpropyl)-3-methyl-6-(((S)-tetrahydrofuran-3-yl)oxy)-1,2,3,4-tetrahydroisoquinolin-1-yl)phenyl)acrylic acid] | 13.7 | 4.79
6 | CC1CN(c2ccc3c(c2)CC(C)N(CC(C)(C)F)C3c2c(F)cc(/C=C/C(=O)O)cc2F)CCO1 [Example 38, (E)-3-(3,5-difluoro-4-((1S,3R/1R,3S)-2-(2-fluoro-2-methylpropyl)-3-methyl-6-(2-methylmorpholino)-1,2,3,4-tetrahydroisoquinolin-1-yl)phenyl)acrylic acid] | 4.42 | 1.34
7 | CC1Cc2cc(N3CCN(C)C(=O)C3)ccc2C(c2c(F)cc(/C=C/C(=O)O)cc2F)N1CC(C)(C)F [Example 39, (E)-3-(3,5-difluoro-4-((1S,3R/1R,3S)-2-(2-fluoro-2-methylpropyl)-3-methyl-6-(4-methyl-3-oxopiperazin-1-yl)-1,2,3,4-tetrahydroisoquinolin-1-yl)phenyl)acrylic acid] | 14.2 | 2.34
8 | CC1Cc2cc(N3Cc4ccncc4C3)ccc2C(c2c(F)cc(/C=C/C(=O)O)cc2F)N1CC(C)(C)F [Example 42, (E)-3-(3,5-difluoro-4-((1S,3R/1R,3S)-2-(2-fluoro-2-methylpropyl)-3-methyl-6-(1H-pyrrolo[3,4-c]pyridin-2(3H)-yl)-1,2,3,4-tetrahydroisoquinolin-1-yl)phenyl)acrylic acid] | 8.1 | 5
9 | Cc1ccc(-c2ccc3c(c2)CC(C)N(CC(C)(C)F)C3c2c(F)cc(/C=C/C(=O)O)cc2F)s1 [Example 43, (E)-3-(3,5-difluoro-4-((1S,3R/1R,3S)-2-(2-fluoro-2-methylpropyl)-3-methyl-6-(5-methylthiophen-2-yl)-1,2,3,4-tetrahydroisoquinolin-1-yl)phenyl)acrylic acid] | 4.98 | 2.66
10 | CC1Cc2cc(-c3cnn(C(C)C)c3)ccc2C(c2c(F)cc(/C=C/C(=O)O)cc2F)N1CC(C)(C)F [Example 50, (E)-3-(3,5-difluoro-4-((1S,3R/1R,3S)-2-(2-fluoro-2-methylpropyl)-6-(1-isopropyl-1H-pyrazol-4-yl)-3-methyl-1,2,3,4-tetrahydroisoquinolin-1-yl)phenyl)acrylic acid] | 9.7 | 4.86
11 | CC(C)Cn1cc(-c2ccc3c(c2)CC(C)N(CC(C)(C)F)C3c2c(F)cc(/C=C/C(=O)O)cc2F)cn1 [Example 52, (E)-3-(3,5-difluoro-4-((1S,3R/1R,3S)-2-(2-fluoro-2-methylpropyl)-6-(1-isobutyl-1H-pyrazol-4-yl)-3-methyl-1,2,3,4-tetrahydroisoquinolin-1-yl)phenyl)acrylic acid] | 26 | 
12 | CC1Cc2cc(-c3ncco3)ccc2C(c2c(F)cc(/C=C/C(=O)O)cc2F)N1CC(C)(C)F [Example 54, (E)-3-(3,5-difluoro-4-((1S,3R/1R,3S)-2-(2-fluoro-2-methylpropyl)-3-methyl-6-(oxazol-2-yl)-1,2,3,4-tetrahydroisoquinolin-1-yl)phenyl)acrylic acid] | 9.41 | 3.67
13 | CC1Cc2cc(-c3cnc4ccccc4c3)ccc2C(c2c(F)cc(/C=C/C(=O)O)cc2F)N1CC(C)(C)F [Example 62, (E)-3-(3,5-difluoro-4-((1S,3R/1R,3S)-2-(2-fluoro-2-methylpropyl)-3-methyl-6-(quinolin-3-yl)-1,2,3,4-tetrahydroisoquinolin-1-yl)phenyl)acrylic acid] | 13.6 | 16.1
14 | CC1Cc2cc(-c3ccc4ncccc4c3)ccc2C(c2c(F)cc(/C=C/C(=O)O)cc2F)N1CC(C)(C)F [Example 63, (E)-3-(3,5-difluoro-4-((1S,3R/1R,3S)-2-(2-fluoro-2-methylpropyl)-3-methyl-6-(quinolin-6-yl)-1,2,3,4-tetrahydroisoquinolin-1-yl)phenyl)acrylic acid] | 1.7 | 0.58
15 | C[C@H]1Cc2cc3c(cc2[C@H](c2c(F)cc(/C=C/C(=O)O)cc2F)N1CC(C)(C)F)OCO3 [Example 72, (E)-3-(3,5-difluoro-4-((5R,7S)-6-(2-fluoro-2-methylpropyl)-7-methyl-5,6,7,8-tetrahydro-[1,3]dioxolo[4,5-g]isoquinolin-5-yl)phenyl)acrylic acid] | 40.9 | 
16 | CC1Cc2cc(C#N)ccc2C(c2c(F)cc(/C=C/C(=O)O)cc2F)N1CC(C)(C)F [Example 93, (E)-3-(4-((1S,3R/1R,3S)-6-cyano-2-(2-fluoro-2-methylpropyl)-3-methyl-1,2,3,4-tetrahydroisoquinolin-1-yl)-3,5-difluorophenyl)acrylic acid] | 12.9 | 
17 | C[C@H]1Cc2c(ccc3[nH]ncc23)[C@H](c2c(F)cc(/C=C/C(=O)O)cc2F)N1CC(C)(C)F [Example 95, (E)-3-(3,5-difluoro-4-((6R,8S)-7-(2-fluoro-2-methylpropyl)-8-methyl-6,7,8,9-tetrahydro-3H-pyrazolo[4,3-f]isoquinolin-6-yl)phenyl)acrylic acid] | 29.8 | 
18 | CCn1cc(-c2ccc3oc4c(c3c2)C[C@H](C)N(CC(C)(C)F)[C@H]4c2c(F)cc(/C=C/C(=O)O)cc2F)cn1 [Example 96, (E)-3-(4-((1S,3S)-6-(1-ethyl-1H-pyrazol-4-yl)-2-(2-fluoro-2-methylpropyl)-3-methyl-1,2,3,4-tetrahydrobenzofuro[2,3-c]pyridin-1-yl)-3,5-difluorophenyl)acrylic acid] | 31.2 | 
19 | C[C@H]1Cc2cc(-c3ccc4cnccc4c3)ccc2[C@H](c2c(F)cc(/C=C/C(=O)O)cc2F)N1CC(C)(C)F [Example 99, (E)-3-(3,5-difluoro-4-((1R,3S)-2-(2-fluoro-2-methylpropyl)-3-methyl-1,2,3,4-tetrahydro-[6,6′-biisoquinolin]-1-yl)phenyl)acrylic acid] | 77.5 | 

— patent publication US10087191B2, “Piperidine derivative and preparation method and pharmaceutical use thereof” (Jiangsu Hengrui Medicine Co., Ltd., priority 2015, dated 2018)
